Entries after “also recorded” stand apart in the source; their conditions may differ.
Columns and labels:
E. coli and P. mirabilis = assay: P-AST species-pair interaction on antibiotic resistance (logistic regression, HSAP/UP); format: cell-based, Escherichia coli; Proteus mirabilis; settings: E. coli and P. mirabilis together v. expected from each species alone (HSAP/UP)
Experimental: (§1) The Pooled Antibiotic Sensitivity Test (P-AST) is permitting the organisms identified to grow in the presence of antibiotics and measuring the minimum concentration of antibiotic to inhibit growth. Antibiotic susceptibility testing is performed when at least a single organism within a pool of organisms reaches a certain threshold, (e.g., at least 3,000 cells/ml, at least 5,000 cells/ml, at least 10,000 cells/ml, etc.) and can grow in the presence of the antibiotic in the assay within the time of testing. (Note: 10,000 cells/ml is equivalent to 10,000 CFU/ml.) The present invention is not limited to a 10,000 cells/mL threshold. These pools of organism(s) are inoculated into growth medium then placed onto an antibiotic laden “spec plate” that is then incubated and analyzed for growth. The breakpoints are derived from the CLSI breakpoints.
(§2) P-AST was performed by aliquoting 1 mL of patient urine specimen into a 1.7 mL microcentrifuge tube. After centrifugation, the supernatant was aspirated and discarded, leaving approximately 100 or 50 μL (minimum volume left above pellet created from centrifugation) of patient sample in the microcentrifuge tube. One mL of Mueller Hinton Growth Media was then aliquoted into the patient sample in the microcentrifuge tube and the tubes were incubated at 35° C. in a non-CO2 incubator for 6 hours. Non-inoculated liquid MH-media is incubated as the negative control to confirm the media used is not contaminated. Those samples that reached a minimum threshold of 10,000 cells/mL were then diluted by aliquoting 0.5 mL of sample into a 50 mL conical tube containing Mueller Hinton Growth Media (in this example, the dilution was 1:60, e.g., 500 μL was added to 29.5 mL). 96-well plates pre-loaded with antibiotics were then inoculated with diluted samples and incubated along with control plates for 12-16 hours at 35° C. in a single layer. Optical density of samples was then read on a DensiCHEK plate reader. The DensiCHEK instrument is used to measure the concentration of turbid samples considered positive because PCR-ID result was >=10,000 cells/mL. The turbid samples were diluted/normalized to the same concentration and then added to a volume of liquid, e.g., 29.5 mL of liquid MH-media. A spectrophotometer (plate reader) is used to measure optical density of the samples in wells of antibiotics and inoculum in order to determine if there is growth in a well. The present invention is not limited to a concentration of 10,000 cells/mL.
(§3) Interactions between pairs of bacterial species were investigated using a logistic regression model to predict resistance in the presence of specific bacterial species. Bacterial species that tested positive in at least 30 samples were considered in the regression model: these 16 species were A. schaalii, A. urinae, A. omnicolens, CoNS, C. riegelii, E. faecalis, E. coli, K. oxytoca, K. pneumoniae, M. morganii, P. mirabilis, P. aeruginosa, S. aureus, S. agalactiae, U. urealyticum, VGS. Backward stepwise model selection was performed on the model with all main effects and all pairwise interactions using an enter significance level of α=0.10 and an exit significance level of α=0.05 to obtain the best fitting model. This model was used to predict resistance rates when a specific organism was present or when a specific pair of organisms were present.
(§4) Using the logistic regression model described above, the resistance rate for a pair of species was compared to the resistance rates for each species alone. […]

[1] = tested on: E. coli and S. agalactiae; assay: as above; format: cell-based, Escherichia coli; Streptococcus agalactiae; settings: E. coli and S. agalactiae together v. expected from each species alone (HSAP/UP)
Experimental: as §1, §2, §3, §4

[2] = tested on: bacterial organisms present in patient urine sample; assay: Antibiotic Resistance (ABR) assay utilizing liquid growth medium; format: cell-based; settings: liquid medium
Experimental: Urine samples suitable for processing with this assay are collected, transported, and stored using BD Vacutainer tubes or other suitable leak-proof sterile containers. Urine samples may be held at room temperature for 48 hours before test results are compromised.
Antibiotic stocks are stored at 2-8° C. and protected from direct sunlight. Prepared antibiotic stock solutions were aliquoted into a 96-deep well plate (ThermoFisher Scientific) to form a 50× Antibiotic Source Plate and then diluted 1:5 to form a 10× Antibiotic Source Plate, as shown in FIG. 12 where each well is identified by antibiotic name and concentration (μg/mL; 10× final concentration). […] One well was assigned sodium azide to ensure no bacterial growth would be observed in that well.
Twenty microliters of each antibiotic solution were aliquoted into the pre-determined wells of a 96-well microplate (VIS 96/F-PS, Eppendorf) from the 10× Antibiotic Source Plate to create ABR testing plates for inoculation. These ABR testing plates were allowed to sit for up to 24 hours before use at 2-8° C. in the dark.
At the time of testing, urine samples were centrifuged to concentrate any bacterial cells and then mixed with liquid Mueller-Hinton medium and incubated for 6-16 hours at 37° C. After this initial incubation, the sample is diluted to 0.5-0.6 McF in saline and then 500 μl of that suspension was added to […] of Mueller-Hinton medium. One-hundred and eighty microliters of the diluted sample is then aliquoted to each well of the ABR microplate already containing 10× antibiotic solution, bringing all of the antibiotics to the desired final concentration. The plate is then sealed and incubated for 12-16 hours at 37° C.
After incubation, the plate was removed from the incubator and carefully uncovered and the OD600 was determined for each appropriate well by spectrophotometer. Five separate measurements were taken of each well on a plate and the mean OD600 measurement calculated for each well.
Controls are depicted in Table 10.
The raw data was then “blanked” using the measurement obtained from the Na-Azide well, as depicted in Table 14.
(§5) To determine whether bacterial organisms present in the patient samples were resistant or sensitive to a particular antibiotic at a certain concentration, blanked OD readings were compared to a threshold OD600 of 0.065 (Table 15). An OD measurement greater than or equal to this threshold was designated Resistant (R) meaning bacterial organisms present in patient sample were resistant to that particular antibiotic at that certain concentration. Any OD measurement less than this threshold was designated Sensitive (S) meaning bacterial organisms present in patient sample were sensitive to that particular antibiotic at that certain concentration.

[3] = tested on: bacterial organisms present in patient urine sample; assay: Antibiotic Resistance (ABR) assay utilizing agar-containing medium; format: cell-based
Experimental: Urine samples suitable for processing with this assay are collected, transported, and stored using BD Vacutainer (gray top) tubes or other suitable leak-proof sterile container. Urine samples may be held at room temperature for 48 hours before test results are compromised.
Antibiotic stocks are stored at 2-8° C. and protected from direct sunlight. Prepared antibiotic stock solutions were aliquoted into a 96-deep well plate (Thermo Fisher Scientific) to form an Antibiotic Source Plate, as shown in FIG. 11 and identified by antibiotic name and concentration (μg/mL; 10× final concentration). […] One well was designated AB-blend which contained a combination of antibiotics to ensure there was no bacterial growth.
One hundred microliters of Mueller-Hinton agar medium was aliquoted into each appropriate well position of a 96-well microplate (VIS 96/F-PS, Eppendorf). The medium was allowed to solidify at room temperature for at least 10 min.
The antibiotics (10 μL) at various concentrations were then aliquoted into desired wells from the Antibiotic Source Plate. After the antibiotics were introduced to the agar medium, the ABR microplates were allowed to sit for at least 1 hr before use. If long-term storage is required, ABR microplates containing antibiotic-infuse agar are stored at 2-8° C. in the dark.
At the time of testing, urine samples were diluted 1:20 in sterile saline and vortexed. Each patient sample utilized a single ABR microplate. Five microliters of diluted patient sample were added to each well of the room temperature microplate, the plate was sealed and incubated for 16-18 hr at 37° C.
After incubation, the plate was removed from the incubator and carefully uncovered. Two-hundred microliters of deionized water were added to each well to suspend cells present above the agar and the plates incubated at room temperature for 30 min. After 30 min, 100 μl from each well was removed to a new plate and the OD600 was determined in a spectrophotometer. Five separate reads were taken of each plate and a mean OD600 measurement calculated.
Controls include: No-antibiotic control, Negative control plate, and AB-Blend. No antibiotic control: Any well containing medium that is not infused with antibiotics to ensure viability of bacterial cells present in patient urine samples and included in each plate. […] Negative control plate: Microplate containing antibiotic-infused agar medium without addition of patient sample or cultured bacterial organisms to ensure non-contamination of reagents. AB-Blend: One or more wells containing a combination of antibiotics to ensure there is no bacterial growth.
The raw data was then “blanked” using the measurement obtained from the AB-Blend well, as depicted in Table 5.
as §5, with “0.025” for “0.065”, “6). Any” for “15). An”

[4] = tested on: E. coli and K. pneumoniae; assay: P-AST species-pair interaction on antibiotic resistance (logistic regression, HSAP/UP); format: cell-based, Escherichia coli; Klebsiella pneumoniae
Experimental: as §1
P-AST was performed by aliquoting 1 mL of patient urine specimen into a 1.7 mL microcentrifuge tube. After centrifugation, the supernatant was aspirated and discarded, leaving approximately 100 or 50 μL (minimum volume left above pellet created from centrifugation) of patient sample in the microcentrifuge tube. […] Optical density of samples was then read on a DensiCHEK plate reader. […] A spectrophotometer (plate reader) is used to measure optical density of the samples in wells of antibiotics and inoculum in order to determine if there is growth in a well. […]

SMILES | change in antibiotic resistance of the pair of organisms (E. coli and P. mirabilis) | Blanked (OD600 minus Na-Azide well) ([2]; antibiotic 4 μg/mL) | Mean (OD600) ([2]; antibiotic 4 μg/mL) | Blanked (OD600 minus Na-Azide well) ([2]; antibiotic 8 μg/mL) | Mean (OD600) ([2]; antibiotic 8 μg/mL) | Blanked (OD600 minus Na-Azide well) ([2]; antibiotic 16 μg/mL) | Mean (OD600) ([2]; antibiotic 16 μg/mL) | Blanked (OD600 minus Na-Azide well) ([2]; antibiotic 32 μg/mL) | Mean (OD600) ([2]; antibiotic 32 μg/mL) | Blanked (OD600 minus AB-Blend well) ([3]; antibiotic 4 μg/mL) | Mean (OD600) ([3]; antibiotic 4 μg/mL) | Blanked (OD600 minus AB-Blend well) ([3]; antibiotic 8 μg/mL) | Mean (OD600) ([3]; antibiotic 8 μg/mL) | Blanked (OD600 minus Na-Azide well) ([2]; antibiotic 2 μg/mL) | Mean (OD600) ([2]; antibiotic 2 μg/mL) | also measured
CC(C)(O/N=C(\C(=O)N[C@@H]1C(=O)N2C(C(=O)[O-])=C(C[n+]3ccccc3)CS[C@H]12)c1csc(N)n1)C(=O)O [Ceftazidime, ceftazidime] | decrease in resistance; also recorded: decreased odds of resistance | 0.2000 | 0.2457 | 0.2150 | 0.2607 | 0.2016 | 0.2473 | 0.1980 | 0.2437 |  |  |  |  |  |  | change in antibiotic resistance of the pair of organisms [1]: decrease in resistance; also recorded: decreased odds of resistance
CN(C)[C@@H]1C(O)=C(C(N)=O)C(=O)[C@@]2(O)C(O)=C3C(=O)c4c(O)cccc4[C@@](C)(O)[C@H]3C[C@@H]12 [tetracycline] |  | 0.1767 | 0.2224 | 0.1139 | 0.1596 | 0.0082 | 0.0539 |  |  | 0.3920 | 0.4304 | 0.4012 | 0.4396 | 0.1627 | 0.2084 | Blanked (OD600 minus AB-Blend well) ([3]; antibiotic 16 μg/mL): 0.4166; Mean (OD600) ([3]; antibiotic 16 μg/mL): 0.4550
N[C@@H](C(=O)N[C@@H]1C(=O)N2C(C(=O)O)=C(Cl)CS[C@H]12)c1ccccc1 [Cefaclor, cefaclor] | decrease in resistance; also recorded: decreased odds of resistance |  |  | 0.1875 | 0.2332 |  |  | 0.0143 | 0.0600 |  |  |  |  |  |  | change in antibiotic resistance of the pair of organisms ([4]; E. coli and K. pneumoniae together v. expected from each species alone (HSAP/UP)): increased odds of resistance; also recorded: higher resistance; also recorded: increased the probability of antibiotic resistance; also recorded: increase in resistance; resistance rate of the combination compared with each species alone ([4]; predicted probabilities, FIG. 1, HSAP model): higher than either E. coli or K. pneumoniae alone
C[C@H]1COc2c(N3CCN(C)CC3)c(F)cc3c(=O)c(C(=O)O)cn1c23 [Levofloxacin, levofloxacin] |  | −0.0026 | 0.0431 | −0.0014 | 0.0443 |  |  |  |  | 0.0360 | 0.0744 | 0.0028 | 0.0412 | −0.0021 | 0.0436 | Blanked (OD600 minus AB-Blend well) ([3]; antibiotic 1 μg/mL): 0.0024; Mean (OD600) ([3]; antibiotic 1 μg/mL): 0.0408; Blanked (OD600 minus AB-Blend well) ([3]; antibiotic 2 μg/mL): 0.0017; Mean (OD600) ([3]; antibiotic 2 μg/mL): 0.0401; Blanked (OD600 minus Na-Azide well) ([2]; antibiotic 1 μg/mL): 0.0723; Mean (OD600) ([2]; antibiotic 1 μg/mL): 0.1180
Cc1nnc(SCC2=C(C(=O)O)N3C(=O)[C@@H](NC(=O)Cn4cnnn4)[C@H]3SC2)s1 [Cefazolin, cefazolin] | decrease in resistance; also recorded: decreased odds of resistance |  |  | 0.1633 | 0.2090 | 0.1011 | 0.1468 | 0.0113 | 0.0570 |  |  |  |  | 0.1882 | 0.2339 | 
O=C1CN(/N=C/c2ccc([N+](=O)[O-])o2)C(=O)N1 [Nitrofurantoin, nitrofurantoin] |  |  |  |  |  |  |  | 0.0095 | 0.0552 |  |  |  |  |  |  | Blanked (OD600 minus AB-Blend well) ([3]; antibiotic 32 μg/mL): 0.0003; Mean (OD600) ([3]; antibiotic 32 μg/mL): 0.0387; Blanked (OD600 minus AB-Blend well) ([3]; antibiotic 64 μg/mL): 0.0002; Mean (OD600) ([3]; antibiotic 64 μg/mL): 0.0386
